Consider one compound from patent publication US8404851B2, “1,3,5-trisubstituted triazole derivative” (Janssen Pharmaceutica NV, priority 2007, dated 2013).

SMILES strings stand for the structures.

Data set [1] has as its target T1, hα7-wt nAChR (Homo sapiens, UniProt P36544).
T1 construct: expressed in transfected cells
The experiment in a line: Ca2+ flux imaging (FDSS), PAM activity with choline. Particulars: hα7-wt nAChR-expressing GH4C1 cells; potentiation of choline 100 μM; compound 0.01 μM to 30 μM. Format: cell-based. The method, then: Ca^2+ Flux Imaging (FDSS) […]
PAM activity was detected in real time by applying the compound to be tested to the loaded cells along with a α7 nicotinic receptor agonist during constant monitoring of the cellular calcium mobilization by fluorescence in a FDSS. […]
A control response to choline was calculated on each plate from the difference in peak in fluorescence in wells receiving either choline or assay buffer alone. […]
EC50 values (potency), maximal effect (% efficacy), and Hill slopes were estimated by fitting the sigmoidal equation to the data using GraphPad Prism (GraphPad Software, Inc., San Diego, Calif.). An EC50 (or pEC50) was determined as a concentration relating to half the maximal effect, when a clear sigmoidal curve with top plateau was obtained.

For data set [2], the target named is T1, hα7-wt nAChR. The experiment in a line: Whole-cell voltage-clamp recording, PAM activity with choline. Format: cell-based. On the set-up: key: Type 1 compounds enhance the effect size of the current elicited by 1 mM choline but minimally alter the kinetics of the receptor.; Type 2 compounds enhance the effect size of the current elicited by 1 mM choline while reducing the rate and/or the extent of desensitization.; Type 3 compounds enhance the effect size of the current elicited by 1 mM choline. When tested at higher concentrations up to 10 μM they completely inhibit desensitization; Type 4 compounds allow for an initial desensitization of the receptor followed by a re-opening of the receptor during agonist application. Particulars: qualitative kinetic properties, 1 mM choline, GH4C1 cells. The method, then:
The compounds of the present invention are classified as type 1-4, based on qualitative kinetic properties, as determined by whole-cell voltage-clamp recordings. This classification is based on the effect of an α7 PAM compound, as described hereinbefore, on the signal elicited by an agonist application. In particular, said agonist is choline at a concentration of 1 mM. In a preferred experimental setting, said α7 PAM compound and choline are simultaneously applied to the cell, as described hereinafter. Desensitization as described hereinafter is the closure of the receptor upon activation during the application of the agonist in whole-cell voltage-clamp electrophysiology measurements seen as the reduction of the […] current after initial activation by the agonist.
The definition of the PAM types 1-4 is described hereinafter: • Type 1 compounds enhance the effect size of the current elicited by 1 mM choline but minimally alter the kinetics of the receptor. In particular, the rate and the extent of desensitization, elicited by the agonist, is not affected. […]
The compound of the present invention also has a potentiating effect on the response to choline when measured by whole-cell voltage clamp electrophysiology in GH4C1 cells stably over-expressing the human wild-type α7 receptor, as described hereinafter. […]

T1 sequence (P36544 23-502): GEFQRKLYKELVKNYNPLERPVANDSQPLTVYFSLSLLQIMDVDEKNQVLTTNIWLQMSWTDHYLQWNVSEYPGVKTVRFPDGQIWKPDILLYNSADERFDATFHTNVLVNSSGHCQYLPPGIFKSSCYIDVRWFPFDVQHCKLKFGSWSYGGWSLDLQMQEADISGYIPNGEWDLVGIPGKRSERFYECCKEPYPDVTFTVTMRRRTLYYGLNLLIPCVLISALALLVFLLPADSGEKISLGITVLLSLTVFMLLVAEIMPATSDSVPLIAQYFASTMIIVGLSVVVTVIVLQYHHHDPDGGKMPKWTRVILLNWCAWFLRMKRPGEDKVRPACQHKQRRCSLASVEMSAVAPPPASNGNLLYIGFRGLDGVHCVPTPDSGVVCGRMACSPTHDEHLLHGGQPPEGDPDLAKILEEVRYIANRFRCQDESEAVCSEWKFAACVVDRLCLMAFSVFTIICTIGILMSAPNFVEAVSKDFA

As to `CCNC(=O)Cn1nc(Nc2ccc3c(c2)OC(F)(F)O3)nc1-c1cc(C)nc(C)c1` [Compound E1, 2-[3-(2,2-Difluoro-benzo[1,3]dioxol-5-ylamino)-5-(2,6-dimethyl-pyridin-4-yl)-[1,2,4]-triazol-1-yl]-N-ethyl-acetamide], the melting point amounted to 242.28 °C. At hα7-wt nAChR [1], the concentration for a half-maximal effect (EC50) is 309 nM. For the same compound, the PAM_type on hα7-wt nAChR [2] is on record as 2.

As usually defined, the EC50 is the concentration at which the effect is half-maximal. What is called melting point is the temperature, or range, at which the solid turns liquid.
